US9981923B2, “1,2,3 Triazole antifungal agents and preparation thereof” (COUNCIL OF SCIENTIFIC & INDUSTRIAL RESEARCH, priority 2014, dated 2018)
Converted amounts (≈) assume the structure as drawn. Where two headings read alike, the source gives them in different places.

Legend:
[1] = system: Aspergillus fumigatus MCC 1046; test: Antifungal susceptibility by microbroth dilution (CLSI); assay type: cell-based; conditions: for MIC: Aspergillus fumigatus
Method: (§1) The synthesized compounds were evaluated for antifungal susceptibility by microbroth dilution method according to the recommendations of the Clinical Laboratory Standards Institute (CLSI 2008). Briefly, appropriate amount of compounds were dissolved in dimethyl sulfoxide to get 100× final strength. The stock was then diluted 1:50 in RPMI/YPG medium and 200 μl from this was added to the first row of a 96-well microtitre plate. The compounds were serially diluted two fold in successive wells to get a range of 1-128 μg/ml. Fungal yeast cells (˜2×10^3 cfu/mL), freshly grown in YPG broth in logarithmic phase, were suspended in the medium and inoculated (100 μl) in the wells of the plate. For filamentous fungi, 2×10^4 spores/mL were added. The microtitre plate was incubated for 48 h, and the absorbance was measured at 600 nm by using microtitre plate reader to assess cell growth.

[2] = system: Candida albicans ATCC 24433; test: as above; assay type: cell-based; conditions: for MIC: Candida albicans, ATCC24433
Method: as §1

[3] = system: Aspergillus niger ATCC 10578; test: as above; assay type: cell-based; conditions: for MIC: Aspergillus niger
Method: as §1

[4] = system: Candida glabrata NCYC 388; test: as above; assay type: cell-based; conditions: for MIC: Nakaseomyces glabratus
Method: as §1

[5] = system: Cryptococcus neoformans ATCC 34664; test: as above; assay type: cell-based; conditions: for MIC: Cryptococcus neoformans, ATCC34664
Method: as §1

ergosterol = test: Effect of the compounds on sterol profile (spectrophotometric ergosterol quantitation); assay type: cell-based, C. albicans ATCC 24433; conditions: for ergosterol depletion (sterol profile, height of absorbance peaks 220-300 nm): C. albicans ATCC 24433, 24 h, 0.5 MIC and MIC of the lead compounds
Method: Inhibition of lanosterol 14 α-demethylase by azoles results in depletion of ergosterol. The depletion can be quantified by spectrophotometry. Briefly, Overnight grown C. albicans ATCC 24433 (1×10^6 cfu/ml) cells were inoculated in a series of flasks containing 50 ml of Yeast extract Peptone Glucose (YPG) broth containing […] of fluconazole per ml as well as 0.5 MIC and MIC of the lead compounds. The cultures were incubated for 24 h with shaking at 30° C. The stationary-phase cells were harvested by centrifugation […] and washed once with sterile distilled water. The net wet weight of the cell pellet was determined. Three milliliters of 25% alcoholic potassium hydroxide solution (25 g of […] and 35 ml of sterile distilled water, brought to 100 ml with 100% ethanol), was added to 125 mg of pellet and vortex mixed for 1 min. Cell suspensions were transferred to sterile borosilicate glass screw-cap tubes and were incubated in an 85° C. water bath for 1 h. Following incubation, tubes were allowed to cool to room temperature. Sterols were then extracted by addition of a mixture of 1 ml of sterile distilled water and 3 ml of n-heptane followed by vigorous vortex mixing for 3 min. The heptane layer was transferred to a clean borosilicate glass screw-cap tube. The sterol extract was scanned spectrophotometrically between 220 and 300 nm with a Spectrophotometer.

[6] = system: Candida albicans ATCC 10231; test: Antifungal susceptibility by microbroth dilution (CLSI); assay type: cell-based; conditions: for MIC: Candida albicans, ATCC10231
Method: as §1

C. tropicalis ATCC 750 = test: as above; assay type: cell-based; conditions: Table 2; for MIC: Candida tropicalis, ATCC750
Method: as §1

[7] = MCC1046, Table 1, 48 h, >90% inhibition of growth, read-out: MIC
[8] = Table 1, 48 h, >90% inhibition of growth, range 1-128 μg/ml, read-out: MIC
[9] = ATCC10578, Table 1, 48 h, >90% inhibition of growth, read-out: MIC
[10] = NCYC388, Table 1, 48 h, >90% inhibition of growth, read-out: MIC
[11] = Table 1, 48 h, >90% inhibition of growth, read-out: MIC
[12] = MCC1046, Table 2, read-out: MIC values
[13] = ATCC10578, Table 2, read-out: MIC values
[14] = NCYC388, Table 2, read-out: MIC values

## Oc1cc(Cl)ccc1-n1cc(CC(O)c2ccccc2)nn1 (stereo not shown) [Compound 1eb, 5-Chloro-2-(4-(2-hydroxy-2-phenylethyl)-1H-1,2,3-triazol-1-yl)phenol]
other
  melting point: 171 to 172 °C

## Oc1ccc(Cl)cc1-n1cc(CC(O)c2ccccc2)nn1 (stereo not shown) [Compound 1ea, 4-Chloro-2-(4-(2-hydroxy-2-phenylethyl)-1H-1,2,3-triazol-1-yl)phenol]
other
  melting point: 148 to 150 °C
[1]; [7]
  MIC: 128 µg/mL (≈ 405 µM)
[2]; [8]
  MIC: 64 µg/mL (≈ 203 µM)
[3]; [9]
  MIC: 64 µg/mL (≈ 203 µM)
[4]; [10]
  MIC: 128 µg/mL (≈ 405 µM)
[5]; [11]
  MIC: > 128 µg/mL

## CC(O)(Cc1cn(-c2ccc(Cl)cc2O)nn1)c1cc(C(F)(F)F)cc(C(F)(F)F)c1 (stereo not shown) [Compound 2sb, 2-(4-(2-(3,5-Bis(trifluoromethyl)phenyl)-2-hydroxypropyl)-1H-1,2,3-triazol-1-yl)-5-chlorophenol]
other
  melting point: 156 to 158 °C

## OC(Cn1cncn1)(Cn1cncn1)c1ccc(F)cc1F [Fluconazole, reference compound]
ergosterol
  ergosterol depletion (sterol profile, height of absorbance peaks 220-300 nm): dose-dependent decrease in the height of the absorbance peaks
[1]; MCC1046, 48 h
  MIC: > 128 µg/mL
[2]; [8]
  MIC: 2 µg/mL (≈ 6.53 µM)
[6]; [11]
  MIC: 8 µg/mL (≈ 26.1 µM)
[3]; ATCC10578, 48 h
  MIC: > 128 µg/mL
[4]; NCYC388, 48 h
  MIC: > 128 µg/mL
[5]; [11]
  MIC: 32 µg/mL (≈ 104 µM)

## CC(O)(Cc1cn(-c2ccc(Cl)cc2O)nn1)c1ccccc1 (stereo not shown) [Compound 2fb, 5-Chloro-2-(4-(2-hydroxy-2-phenylpropyl)-1H-1,2,3-triazol-1-yl)phenol]
other
  melting point: 189 to 190 °C

## Oc1ccc(Cl)cc1-n1cc(C(O)c2cc(C(F)(F)F)cc(C(F)(F)F)c2)nn1 (stereo not shown) [Compound 1ba, 2-(4-((3,5-Bis(trifluoromethyl)phenyl)(hydroxy)methyl)-1H-1,2,3-triazol-1-yl)-4-chlorophenol]
other
  melting point: 211 to 213 °C
[1]; [7]
  MIC: > 128 µg/mL
[2]; [8]
  MIC: 128 µg/mL (≈ 292 µM)
[3]; [9]
  MIC: > 128 µg/mL
[4]; [10]
  MIC: 128 µg/mL (≈ 292 µM)
[5]; [11]
  MIC: 16 µg/mL (≈ 36.6 µM)

## CCCCC(O)(Cc1cn(-c2cc(Cl)ccc2O)nn1)c1ccccc1 (stereo not shown) [Compound 2ha, 4-chloro-2-(4-(2-hydroxy-2-phenylhexyl)-1H-1,2,3-triazol-1-yl)phenol]
other
  melting point: 165 to 167 °C

## CC(O)(c1ccccc1)c1cn(-c2cc(Cl)ccc2O)nn1 (stereo not shown) [Compound 2ca]
ergosterol; C. albicans ATCC 24433 sterol profile
  inhibition of lanosterol 14 α-demethylase enzyme (concluded from ergosterol depletion): potent inhibitors

## Oc1ccc(Cl)cc1-n1cc(CC(O)(c2ccccc2)c2ccccc2)nn1 [Compound 2ia, 4-Chloro-2-(4-(2-hydroxy-2,2-diphenylethyl)-1H-1,2,3-triazol-1-yl)phenol]
other
  melting point: 194 to 196 °C
[1]; [7]
  MIC: 128 µg/mL (≈ 327 µM)
[2]; [8]
  MIC: 128 µg/mL (≈ 327 µM)
[3]; [9]
  MIC: > 128 µg/mL
[4]; [10]
  MIC: 128 µg/mL (≈ 327 µM)
[5]; [11]
  MIC: > 128 µg/mL

## Cc1cc(C)cc(C(O)c2cn(-c3cc(Cl)ccc3O)nn2)c1 (stereo not shown) [Compound 1aa, 4-Chloro-2-(4-((3,5-dimethylphenyl)(hydroxy)methyl)-1H-1,2,3-triazol-1-yl)phenol]
other
  melting point: 191 to 193 °C
[1]; [7]
  MIC: 64 µg/mL (≈ 194 µM)
[2]; [8]
  MIC: 64 µg/mL (≈ 194 µM)
[3]; [9]
  MIC: 64 µg/mL (≈ 194 µM)
[4]; [10]
  MIC: 32 µg/mL (≈ 97 µM)
[5]; [11]
  MIC: 32 µg/mL (≈ 97 µM)

## Oc1cc(Cl)ccc1-n1cc(CC(O)(c2ccccc2)c2ccccc2)nn1 [Compound 2ib, 5-Chloro-2-(-4-(2-hydroxy-2,2-diphenylethyl)-1H-1,2,3-triazol-1-yl)phenol]
other
  melting point: 210 to 212 °C

## Oc1ccc(Cl)cc1-n1cc(CC(O)c2cc(C(F)(F)F)cc(C(F)(F)F)c2)nn1 (stereo not shown) [Compound 1ja, 2-(-4-(2-(3,5-Bis(trifluoromethyl)phenyl)-2-hydroxyethyl)-1,2,3-triazol-1-yl)-4-chlorophenol]
other
  melting point: 181 to 183 °C

## Oc1cc(Cl)ccc1-n1cc(CC(O)c2cc(C(F)(F)F)cc(C(F)(F)F)c2)nn1 (stereo not shown) [Compound 1jb, 2-(4-(2-(3,5-Bis(trifluoromethyl)phenyl)-2-hydroxyethyl)-1H-1,2,3-triazol-1-yl)-5-chlorophenol]
other
  melting point: 192 to 194 °C

## CN(C)c1ccc(C(O)Cc2cn(-c3cc(Cl)ccc3O)nn2)cc1 (stereo not shown) [Compound 3ga, 4-Chloro-2-(4-(2-(4-(dimethylamino)phenyl)-2-hydroxyethyl)-1H-1,2,3-triazol-1-yl)phenol]
[1]; Table 2
  MIC values: >256 µg/mL
[2]; Table 2
  MIC values: 64 µg/mL (≈ 178 µM)
[6]; Table 2
  MIC values: 16 µg/mL (≈ 44.6 µM)
[3]; Table 2
  MIC values: >256 µg/mL
[4]; Table 2
  MIC values: 16 µg/mL (≈ 44.6 µM)
C. tropicalis ATCC 750
  MIC values: >256 µg/mL
[5]; Table 2
  MIC values: 64 µg/mL (≈ 178 µM)

## CC(O)(Cc1cn(-c2ccc(Cl)cc2O)nn1)c1ccc(Cl)cc1Cl (stereo not shown) [Compound 3bb, 5-Chloro-2-(4-(2-(2,4-dichlorophenyl)-2-hydroxypropyl)-1H-1,2,3-triazol-1-yl)phenol]
[1]; [12]
  MIC: 16 µg/mL (≈ 40.1 µM)
[2]; Table 2, read-out: MIC values
  MIC: 4 µg/mL (≈ 10 µM)
[6]; Table 2, read-out: MIC values
  MIC: 16 µg/mL (≈ 40.1 µM)
[3]; [13]
  MIC: 32 µg/mL (≈ 80.3 µM)
[4]; [14]
  MIC: 16 µg/mL (≈ 40.1 µM)
C. tropicalis ATCC 750
  MIC: 32 µg/mL (≈ 80.3 µM)
[5]; Table 2, read-out: MIC values
  MIC: 8 µg/mL (≈ 20.1 µM)

## CC(O)(Cc1cn(-c2cc(Cl)ccc2O)nn1)c1ccc(F)cc1 (stereo not shown) [Compound 3da, 4-Chloro-2-(4-(2(4fluorophenyl)-2-hydroxypropyl)-1H-1,2,3-triazol-1-yl)phenol]
[1]; [12]
  MIC: 64 µg/mL (≈ 184 µM)
[2]; Table 2, read-out: MIC values
  MIC: 32 µg/mL (≈ 92 µM)
[6]; Table 2, read-out: MIC values
  MIC: 32 µg/mL (≈ 92 µM)
[3]; [13]
  MIC: 128 µg/mL (≈ 368 µM)
[4]; [14]
  MIC: 64 µg/mL (≈ 184 µM)
C. tropicalis ATCC 750
  MIC: 128 µg/mL (≈ 368 µM)
[5]; Table 2, read-out: MIC values
  MIC: 64 µg/mL (≈ 184 µM)

## CC(O)(c1ccccc1)c1cn(-c2ccc(Cl)cc2O)nn1 (stereo not shown) [Compound 2cb, 5-Chloro-2-(4-(1-hydroxy-1-phenylethyl)-1H-1,2,3-triazol-1-yl)phenol]
other
  melting point: 232 to 234 °C
ergosterol
  ergosterol depletion (sterol profile, height of absorbance peaks 220-300 nm): no ergosterol depletion was observed

## CC(O)(Cc1cn(-c2ccc(Cl)cc2O)nn1)c1ccc(Cl)cc1 (stereo not shown) [Compound 3eb, 5-Chloro-2-(4-(2-(4-chlorophenyl)-2-hydroxypropyl)-1H-1,2,3-triazol-1-yl)phenol]
[1]; [12]
  MIC: 64 µg/mL (≈ 176 µM)
[2]; Table 2, read-out: MIC values
  MIC: 32 µg/mL (≈ 87.9 µM)
[6]; Table 2, read-out: MIC values
  MIC: 16 µg/mL (≈ 43.9 µM)
[3]; [13]
  MIC: 64 µg/mL (≈ 176 µM)
[4]; [14]
  MIC: 32 µg/mL (≈ 87.9 µM)
C. tropicalis ATCC 750
  MIC: 64 µg/mL (≈ 176 µM)
[5]; Table 2, read-out: MIC values
  MIC: 32 µg/mL (≈ 87.9 µM)

## CC(O)(Cc1cn(-c2ccc(Cl)cc2O)nn1)c1ccc(Br)cc1 (stereo not shown) [Compound 3fb, 2-(4-(2-(4-Bromophenyl)-2-hydroxypropyl)-1H-1,2,3-triazol-1-yl)-5-chlorophenol]
[1]; [12]
  MIC: 64 µg/mL (≈ 157 µM)
[2]; Table 2, read-out: MIC values
  MIC: 16 µg/mL (≈ 39.2 µM)
[6]; Table 2, read-out: MIC values
  MIC: 16 µg/mL (≈ 39.2 µM)
[3]; [13]
  MIC: 64 µg/mL (≈ 157 µM)
[4]; [14]
  MIC: 32 µg/mL (≈ 78.3 µM)
C. tropicalis ATCC 750
  MIC: 64 µg/mL (≈ 157 µM)
[5]; Table 2, read-out: MIC values
  MIC: 32 µg/mL (≈ 78.3 µM)
